# From the NIST ThermoML archive (doi:10.1016/j.jct.2015.07.042)
# Numbers after ± are expanded uncertainties.
# Key:
# [1] = activity coefficient (dimensionless); of the first substance listed, at infinite dilution; xn = mol fraction of the nth substance listed; settings: 101 kPa, Liquid, Chromatography, x1 = 0
# [2] = 333.15 K; 100 kPa; Liquid; Vibrating tube method
# [3] = 338.15 K; 100 kPa; Liquid; Vibrating tube method
# [4] = 343.15 K; 100 kPa; Liquid; Vibrating tube method
# [5] = 348.15 K; 100 kPa; Liquid; Vibrating tube method
# [6] = 353.15 K; 100 kPa; Liquid; Vibrating tube method
# [7] = 358.15 K; 100 kPa; Liquid; Vibrating tube method
# [8] = 363.15 K; 100 kPa; Liquid; Vibrating tube method
# [9] = 368.15 K; 100 kPa; Liquid; Vibrating tube method
SMILES,activity coefficient ([1]; 358.15 K),activity coefficient ([1]; 368.15 K),activity coefficient ([1]; 378.15 K),activity coefficient ([1]; 388.15 K),also measured
CCCCn1cc[n+](C)c1.[Cl-] [1-butyl-3-methylimidazolium chloride],–,–,–,–,mass density (308.15 K; 100 kPa; Metastable liquid; Vibrating tube method): 1079.4 ± 1 kg/m3; mass density (313.15 K; 100 kPa; Metastable liquid; Vibrating tube method): 1076.6 ± 1 kg/m3; mass density (318.15 K; 100 kPa; Metastable liquid; Vibrating tube method): 1073.7 ± 1 kg/m3; mass density (323.15 K; 100 kPa; Metastable liquid; Vibrating tube method): 1070.9 ± 1 kg/m3; mass density (328.15 K; 100 kPa; Metastable liquid; Vibrating tube method): 1068.1 ± 1 kg/m3; mass density (333.15 K; 100 kPa; Metastable liquid; Vibrating tube method): 1065.2 ± 1 kg/m3; mass density (338.15 K; 100 kPa; Metastable liquid; Vibrating tube method): 1062.4 ± 1 kg/m3; mass density (343.15 K; 100 kPa; Vibrating tube method; Liquid): 1059.6 ± 1 kg/m3; mass density (348.15 K; 100 kPa; Vibrating tube method; Liquid): 1056.9 ± 1 kg/m3; mass density (353.15 K; 100 kPa; Vibrating tube method; Liquid): 1054.3 ± 1 kg/m3; mass density (358.15 K; 100 kPa; Vibrating tube method; Liquid): 1051.7 ± 1 kg/m3; mass density (363.15 K; 100 kPa; Vibrating tube method; Liquid): 1049 ± 1 kg/m3; mass density (368.15 K; 100 kPa; Vibrating tube method; Liquid): 1046.4 ± 1 kg/m3; mass density (373.15 K; 100 kPa; Vibrating tube method; Liquid): 1043.9 ± 1 kg/m3
CCCCn1cc[n+](C)c1.COP(=O)([O-])OC [1-butyl-3-methyl-1H-imidazolium dimethylphosphate],–,–,–,–,mass density (293.15 K; 100 kPa; Liquid; Vibrating tube method): 1166.5 ± 1.5 kg/m3; mass density (298.15 K; 100 kPa; Liquid; Vibrating tube method): 1163.2 ± 1.5 kg/m3; mass density (303.15 K; 100 kPa; Liquid; Vibrating tube method): 1159.4 ± 1.5 kg/m3; mass density (308.15 K; 100 kPa; Liquid; Vibrating tube method): 1156.2 ± 1.5 kg/m3; mass density (313.15 K; 100 kPa; Liquid; Vibrating tube method): 1152.7 ± 1.5 kg/m3; mass density (318.15 K; 100 kPa; Liquid; Vibrating tube method): 1149.5 ± 1.5 kg/m3; mass density (323.15 K; 100 kPa; Liquid; Vibrating tube method): 1146.1 ± 1.4 kg/m3; mass density (328.15 K; 100 kPa; Liquid; Vibrating tube method): 1143 ± 1.4 kg/m3; mass density [2]: 1139.7 ± 1.4 kg/m3; mass density [3]: 1136.5 ± 1.4 kg/m3; mass density [4]: 1133.3 ± 1.4 kg/m3; mass density [5]: 1130.1 ± 1.4 kg/m3; mass density [6]: 1126.9 ± 1.4 kg/m3; mass density [7]: 1123.7 ± 1.4 kg/m3; mass density [8]: 1120.6 ± 1.4 kg/m3; mass density [9]: 1117.4 ± 1.4 kg/m3
CCCCn1cc[n+](C)c1.CS(=O)(=O)[O-] [1-butyl-3-methylimidazolium methanesulfonate],–,–,–,–,mass density [2]: 1150.6 ± 1.1 kg/m3; mass density [3]: 1147.4 ± 1.1 kg/m3; mass density [4]: 1144.3 ± 1.1 kg/m3; mass density [5]: 1141.2 ± 1 kg/m3; mass density [6]: 1137.9 ± 1 kg/m3; mass density [7]: 1134.9 ± 1 kg/m3; mass density [8]: 1131.9 ± 1 kg/m3; mass density [9]: 1128.8 ± 1 kg/m3; mass density (373.15 K; 100 kPa; Liquid; Vibrating tube method): 1125.8 ± 1 kg/m3
CCCC=O [butanal] + CCCCn1cc[n+](C)c1.COP(=O)([O-])OC,2.66 ± 0.18,2.74 ± 0.19,2.82 ± 0.19,2.97 ± 0.2,–
CC(C)=O [acetone] + CCCCn1cc[n+](C)c1.CS(=O)(=O)[O-],2.06 ± 0.14,2.12 ± 0.14,2.22 ± 0.15,2.3 ± 0.16,–
CCC[N+](=O)[O-] [1-nitropropane] + CCCCn1cc[n+](C)c1.[Cl-],2.51 ± 0.17,2.61 ± 0.18,2.69 ± 0.18,2.8 ± 0.19,–
C1=CCCCC1 [cyclohexene] + CCCCn1cc[n+](C)c1.CS(=O)(=O)[O-],18.4 ± 1.3,18.6 ± 1.3,18.7 ± 1.3,19 ± 1.3,–
C#CCCCC [1-hexyne] + CCCCn1cc[n+](C)c1.[Cl-],7.33 ± 0.5,7.85 ± 0.54,8.19 ± 0.56,8.61 ± 0.59,–
C#CCCCCC [1-heptyne] + CCCCn1cc[n+](C)c1.COP(=O)([O-])OC,4.21 ± 0.29,4.48 ± 0.31,4.7 ± 0.32,4.93 ± 0.34,–
"C1COCCO1 [1,4-dioxane] + CCCCn1cc[n+](C)c1.COP(=O)([O-])OC",2.13 ± 0.14,2.19 ± 0.15,2.25 ± 0.15,2.37 ± 0.16,–
C#CCCCCC [1-heptyne] + CCCCn1cc[n+](C)c1.[Cl-],11.6 ± 0.79,12.3 ± 0.84,12.7 ± 0.87,13.3 ± 0.91,–
c1ccncc1 [pyridine] + CCCCn1cc[n+](C)c1.COP(=O)([O-])OC,1.18 ± 0.08,1.23 ± 0.08,1.28 ± 0.08,1.35 ± 0.09,–
C1=CCCCC1 [cyclohexene] + CCCCn1cc[n+](C)c1.COP(=O)([O-])OC,7.15 ± 0.49,7.13 ± 0.49,7.11 ± 0.48,7.11 ± 0.48,–
CC(C)O [propan-2-ol] + CCCCn1cc[n+](C)c1.COP(=O)([O-])OC,–,–,–,–,activity coefficient ([1]; 398.15 K): 0.256 ± 0.03; activity coefficient ([1]; 408.15 K): 0.282 ± 0.03; activity coefficient ([1]; 418.15 K): 0.311 ± 0.031; activity coefficient ([1]; 428.15 K): 0.344 ± 0.032
C=CCCCC [hex-1-ene] + CCCCn1cc[n+](C)c1.[Cl-],61.7 ± 4.2,57.9 ± 4,53.9 ± 3.7,52 ± 3.6,–
CCCC=O [butanal] + CCCCn1cc[n+](C)c1.[Cl-],5.24 ± 0.36,5.31 ± 0.36,5.43 ± 0.37,5.54 ± 0.38,–
C=COC(C)=O [vinyl acetate] + CCCCn1cc[n+](C)c1.COP(=O)([O-])OC,2.79 ± 0.19,2.88 ± 0.2,2.99 ± 0.2,3.13 ± 0.21,–
"Cc1cccc(C)c1 [1,3-dimethylbenzene] + CCCCn1cc[n+](C)c1.CS(=O)(=O)[O-]",9.27 ± 0.63,9.43 ± 0.64,9.57 ± 0.65,9.92 ± 0.68,–
CC(C)=O [acetone] + CCCCn1cc[n+](C)c1.[Cl-],3.05 ± 0.21,3.12 ± 0.21,3.17 ± 0.22,3.27 ± 0.22,–
C=C(C)c1ccccc1 [(1-methylethenyl)benzene] + CCCCn1cc[n+](C)c1.[Cl-],9.01 ± 0.61,9.33 ± 0.64,9.83 ± 0.67,10.3 ± 0.71,–
c1ccccc1 [benzene] + CCCCn1cc[n+](C)c1.COP(=O)([O-])OC,2.33 ± 0.16,2.41 ± 0.16,2.49 ± 0.17,2.63 ± 0.18,–
CCCC(C)=O [pentan-2-one] + CCCCn1cc[n+](C)c1.COP(=O)([O-])OC,3.63 ± 0.25,3.7 ± 0.25,3.78 ± 0.26,3.94 ± 0.27,–
CCC(=O)CC [pentan-3-one] + CCCCn1cc[n+](C)c1.CS(=O)(=O)[O-],4.68 ± 0.32,4.79 ± 0.33,4.88 ± 0.33,5.09 ± 0.35,–
C=C(C)c1ccccc1 [(1-methylethenyl)benzene] + CCCCn1cc[n+](C)c1.COP(=O)([O-])OC,4.57 ± 0.31,4.77 ± 0.33,4.98 ± 0.34,5.29 ± 0.36,–
CCC(C)(C)OC [2-methoxy-2-methylbutane] + CCCCn1cc[n+](C)c1.CS(=O)(=O)[O-],23.8 ± 1.6,24.2 ± 1.6,24.7 ± 1.7,25.3 ± 1.7,–
COC(C)=O [methyl ethanoate] + CCCCn1cc[n+](C)c1.[Cl-],4.82 ± 0.33,4.89 ± 0.33,5.01 ± 0.34,5.09 ± 0.35,–
CCCOCCC [dipropyl ether] + CCCCn1cc[n+](C)c1.[Cl-],57.4 ± 3.9,55.3 ± 3.8,52.8 ± 3.6,51.9 ± 3.6,–
